Values quoted from earlier work, collected in patent US11033601B2, “Selective inhibition of V1b for treating fatty liver” (The Regents of the University of Colorado, priority 2017, dated 2021).

Molecular target: V2 receptors (Homo sapiens, UniProt P30518)
Sequence (P30518 whole entry): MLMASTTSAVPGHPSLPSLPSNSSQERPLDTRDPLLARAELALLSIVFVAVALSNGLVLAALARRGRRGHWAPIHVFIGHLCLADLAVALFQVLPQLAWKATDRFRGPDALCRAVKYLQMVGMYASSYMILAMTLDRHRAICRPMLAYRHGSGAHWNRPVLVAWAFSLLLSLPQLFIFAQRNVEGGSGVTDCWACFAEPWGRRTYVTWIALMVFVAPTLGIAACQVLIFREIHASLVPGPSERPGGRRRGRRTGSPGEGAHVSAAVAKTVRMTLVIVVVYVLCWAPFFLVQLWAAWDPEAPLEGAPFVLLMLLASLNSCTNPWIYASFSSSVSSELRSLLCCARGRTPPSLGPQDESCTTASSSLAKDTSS

COc1ccc(S(=O)(=O)N2C(=O)[C@@](c3ccccc3OC)(N3C[C@H](O)C[C@H]3C(=O)N(C)C)c3cc(Cl)ccc32)c(OC)c1 [Nelivaptan]
effects on V2 receptors: little effects
